This passage reports IC50 results from patent US20240383915A1, “OXAZEPINE COMPOUNDS AND USES THEREOF IN THE TREATMENT OF CANCER” (Genentech, Inc., priority 2021, published 2024).

SMILES strings stand for the structures.

Experiment [1] deals with KRas(G12V) (Homo sapiens (Human), UniProt P01116, G12V). The experiment can be described thus: KRas(G12V) GDP HTRF (BODIPY-GDP exchange TR-FRET). It counts as biochemical. (In general: In TR-FRET formats the signal depends on donor and acceptor labels being close together.)
Sequence of KRas(G12V) (P01116-2 other isoform, or with tags, fused parts or gaps G12V): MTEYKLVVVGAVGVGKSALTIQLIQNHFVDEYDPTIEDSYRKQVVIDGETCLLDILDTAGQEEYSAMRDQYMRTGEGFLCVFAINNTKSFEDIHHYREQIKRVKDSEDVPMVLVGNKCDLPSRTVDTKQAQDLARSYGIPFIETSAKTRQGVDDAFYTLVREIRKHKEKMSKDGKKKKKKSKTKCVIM
The target of experiment [2] is KRas (Homo sapiens (Human), UniProt P01116). The experiment can be described thus: KRas GDP HTRF (BODIPY-GDP exchange TR-FRET). It counts as biochemical. The procedure, abridged: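 Inhibition of SOS1-mediated exchange of BODIPY-GDP on KRAS G12D, started with 3 nM recombinant human SOS1 and 300 nM BODIPY-GDP and read after 60 min. TR-FRET excitation 337 nm, ratio 520/490 nm ×10,000. IC50 from 4-parameter Hill fit of normalized data.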
Sequence of KRas (P01116-2 other isoform, or with tags, fused parts or gaps): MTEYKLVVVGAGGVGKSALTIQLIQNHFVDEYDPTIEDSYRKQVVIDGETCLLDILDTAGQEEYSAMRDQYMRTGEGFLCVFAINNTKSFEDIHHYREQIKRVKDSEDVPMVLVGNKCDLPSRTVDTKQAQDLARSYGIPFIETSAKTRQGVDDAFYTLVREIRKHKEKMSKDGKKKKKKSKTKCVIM

Experiment [3] has as its system SW480 cells. Kind of experiment: SW480 proliferation assay. It counts as cell-based. The following applies: Homo sapiens, SW480, SW480; read-out: SW480 Prolif IC50 (G12V).
In experiment [4] the test system is PC-9 cells. The experiment can be described thus: PC9 proliferation assay. It counts as cell-based, human. The note with it: Homo sapiens, PC-9, PC9; read-out: PC9 Prolif IC50 (G12V).

As for `Cc1cc(N)nc(-c2cc3ncnc4c3c(c2Cl)OCCN4CCn2ccccc2=O)c1C(F)(F)F` [Example 51, 1-(2-(9-(6-amino-4-methyl-3-(trifluoromethyl)pyridin-2-yl)-8-chloro-5,6-dihydro-[1,4]oxazepino[5,6,7-de]quinazolin-4-yl)ethyl)pyridin-2(1H)-one], the IC50 in experiment [1] was determined as 9500 nM; in experiment [2], 12000 nM; in experiment [3], 20 µM; in experiment [4] it was 20 µM.
`Cc1cc(N)nc(-c2cc3ncnc4c3c(c2Cl)OC[C@H](CC#N)N4Cc2cccnc2N)c1C(F)(F)F` [Example 19, (S)-2-(9-(6-amino-4-methyl-3-(trifluoromethyl)pyridin-2-yl)-4-((2-aminopyridin-3-yl)methyl)-8-chloro-5,6-dihydro-4H-[1,4]oxazepino[5,6,7-de]quinazolin-5-yl)acetonitrile]: the IC50 in experiment [1] was determined as 15000 nM; in experiment [2], 200000 nM; in experiment [3], 5.7 µM; in experiment [4] it was 4.5 µM.
Take `COC(C)(C)COc1nc2c3c(c(Cl)c(-c4nc(N)cc(C)c4C(F)(F)F)c(F)c3n1)OCCN2[C@H](C)c1cccnc1N` (atropisomer, axis not shown) [Example 110a, 6-((R)-4-((R)-1-(2-aminopyridin-3-yl)ethyl)-8-chloro-10-fluoro-2-(2-methoxy-2-methylpropoxy)-5,6-dihydro-4H-[1,4]oxazepino[5,6,7-de]quinazolin-9-yl)-4-methyl-5-(trifluoromethyl)pyridin-2-amine]: the concentration for half-maximal inhibition (IC50) in experiment [3] was 0.098 µM; in experiment [4] it was 11 µM.
For the molecule `Cc1cc(N)nc(-c2cc3nc(OCC45COC(C4)C5)nc4c3c(c2Cl)OCCN4Cc2cccnc2N)c1C(F)(F)F` [Example 36, 6-(2-((2-oxabicyclo[2.1.1]hexan-4-yl)methoxy)-4-((2-aminopyridin-3-yl)methyl)-8-chloro-5,6-dihydro-4H-[1,4]oxazepino[5,6,7-de]quinazolin-9-yl)-4-methyl-5-(trifluoromethyl)pyridin-2-amine], the figures for the IC50 in experiment [3] and in experiment [4] were 8.2 µM and 20 µM, respectively.
Turning to `Cc1cc(N)nc(-c2c(Cl)c3c4c(nc(OCCN5CCOCC5)nc4c2F)N([C@H](C)c2cccnc2N)CCO3)c1C(F)(F)F` (atropisomer, axis not shown) [Example 138, 6-((R)-4-((R)-1-(2-aminopyridin-3-yl)ethyl)-8-chloro-10-fluoro-2-(2-morpholinoethoxy)-5,6-dihydro-4H-[1,4]oxazepino[5,6,7-de]quinazolin-9-yl)-4-methyl-5-(trifluoromethyl)pyridin-2-amine], the IC50 worked out at 0.077 µM in experiment [3] and 4.9 µM in experiment [4].
On to `COC1(CCOc2nc3c4c(c(Cl)c(-c5nc(N)cc(C)c5C(F)(F)F)c(F)c4n2)OCCN3[C@H](C)c2cccnc2N)CCC1` (atropisomer, axis not shown) [Example 150, 6-((R)-4-((R)-1-(2-aminopyridin-3-yl)ethyl)-8-chloro-10-fluoro-2-(2-(1-methoxycyclobutyl)ethoxy)-5,6-dihydro-4H-[1,4]oxazepino[5,6,7-de]quinazolin-9-yl)-4-methyl-5-(trifluoromethyl)pyridin-2-amine], for which the IC50 in experiment [3] turned out to be 0.79 µM; in experiment [4], 8.9 µM.
Take `Cc1cc(N)nc(-c2c(Cl)c3c4c(nc(OCC56CC(CO5)C6)nc4c2F)N([C@H](C)c2cccnc2N)CCO3)c1C(F)(F)F` [Example 143, 6-((R)-2-((2-oxabicyclo[2.1.1]hexan-1-yl)methoxy)-4-((R)-1-(2-aminopyridin-3-yl)ethyl)-8-chloro-10-fluoro-5,6-dihydro-4H-[1,4]oxazepino[5,6,7-de]quinazolin-9-yl)-4-methyl-5-(trifluoromethyl)pyridin-2-amine]: the IC50 is 0.094 µM in experiment [3] and 10 µM in experiment [4].
As to `Cc1cc(N)nc(-c2c(Cl)c3c4c(nc(OC[C@@H]5CC[C@H]6COCCN65)nc4c2F)N([C@H](C)c2nccnc2N)CCO3)c1C(F)(F)F` (atropisomer, axis not shown; (aS)) [Example 104a, 3-((R)-1-((R)-9-(6-amino-4-methyl-3-(trifluoromethyl)pyridin-2-yl)-8-chloro-10-fluoro-2-(((6S,8aS)-hexahydro-1H-pyrrolo[2,1-c][1,4]oxazin-6-yl)methoxy)-5,6-dihydro-4H-[1,4]oxazepino[5,6,7-de]quinazolin-4-yl)ethyl)pyrazin-2-amine], the IC50 in experiment [1] was found to be 0.15 nM; in experiment [2], 0.447 nM; in experiment [3] it was 0.012 µM.
As for `Cc1cc(N)nc(-c2c(Cl)c3c4c(nc(OC[C@@]56CCCN5C[C@H](F)C6)nc4c2F)N([C@H](C)c2ccnnc2N)CCO3)c1C(F)(F)F` (atropisomer, axis not shown) [Example 133c], the IC50 in experiment [3] amounted to 0.025 µM; in experiment [4], 7.1 µM.
With `Cc1c(F)c(N)cc(-c2c(Cl)c3c4c(nc(OC[C@@]56CCCN5C[C@H](F)C6)nc4c2F)N([C@H](C)c2cccnc2N)CCO3)c1C(F)(F)F` (atropisomer, axis not shown; (aS)) [Example 76a, 3-((R)-1-(9-((S)-5-amino-4-fluoro-3-methyl-2-(trifluoromethyl)phenyl)-8-chloro-10-fluoro-2-(((2R,7aS)-2-fluorotetrahydro-1H-pyrrolizin-7a(5H)-yl)methoxy)-5,6-dihydro-4H-[1,4]oxazepino[5,6,7-de]quinazolin-4-yl)ethyl)pyridin-2-amine], the IC50 in experiment [1] amounted to 0.09 nM; in experiment [2], 0.102 nM; in experiment [3] it was 0.0019 µM.
Regarding `Cc1cc(N)nc(-c2cc3nc(OC[C@]45CCCN4CC(F)(F)C5)nc4c3c(c2Cl)OCCN4Cc2cccnc2N)c1C(F)(F)F` [Example 50, (R)-6-(4-((2-aminopyridin-3-yl)methyl)-8-chloro-2-((2,2-difluorotetrahydro-1H-pyrrolizin-7a(5H)-yl)methoxy)-5,6-dihydro-4H-[1,4]oxazepino[5,6,7-de]quinazolin-9-yl)-4-methyl-5-(trifluoromethyl)pyridin-2-amine], the IC50 in experiment [3] was determined as 0.93 µM; in experiment [4] it was 6.7 µM.
As for `Cc1cc(N)nc(-c2cc3ncnc4c3c(c2Cl)OCCN4C)c1C(F)(F)F` [Example 24, 6-(8-chloro-4-methyl-5,6-dihydro-4H-[1,4]oxazepino[5,6,7-de]quinazolin-9-yl)-4-methyl-5-(trifluoromethyl)pyridin-2-amine], the IC50 in experiment [1] stood at 4400 nM; in experiment [2] it was 30000 nM; in experiment [4], 20 µM.
`Cc1cc(N)nc(-c2cc3nc(OC[C@@]45CCCN4CC(F)(F)C5)nc4c3c(c2Cl)OCCN4Cc2cccnc2N)c1C(F)(F)F` [Example 34, (S)-6-(4-((2-aminopyridin-3-yl)methyl)-8-chloro-2-((2,2-difluorotetrahydro-1H-pyrrolizin-7a(5H)-yl)methoxy)-5,6-dihydro-4H-[1,4]oxazepino[5,6,7-de]quinazolin-9-yl)-4-methyl-5-(trifluoromethyl)pyridin-2-amine]: the IC50 amounted to 0.82 µM in experiment [3] and 4 µM in experiment [4].
Take `Cc1cc(N)nc(-c2c(Cl)c3c4c(nc(OC[C@H]5CC[C@@H]6CO[C@H](C)CN56)nc4c2F)N([C@H](C)c2cccnc2N)CCO3)c1C(F)(F)F` (atropisomer, axis not shown; (aR)) [Example 93d, 6-((R)-4-((R)-1-(2-aminopyridin-3-yl)ethyl)-8-chloro-10-fluoro-2-(((3R,6R,8aR)-3-methylhexahydro-1H-pyrrolo[2,1-c][1,4]oxazin-6-yl)methoxy)-5,6-dihydro-4H-[1,4]oxazepino[5,6,7-de]quinazolin-9-yl)-4-methyl-5-(trifluoromethyl)pyridin-2-amine]: the results for the IC50 in experiment [1], in experiment [2] and in experiment [3] were 0.07 nM, 0.0849 nM and 0.0011 µM, respectively.
As for `Cc1cc(N)nc(-c2c(Cl)c3c4c(nc(OC(C)(C)[C@@H]5CC(F)(F)CN5C)nc4c2F)N([C@H](C)c2cccnc2N)CCO3)c1C(F)(F)F` (atropisomer, axis not shown) [Example 72, 6-((R)-4-((R)-1-(2-aminopyridin-3-yl)ethyl)-8-chloro-2-((2-((S)-4,4-difluoro-1-methylpyrrolidin-2-yl)propan-2-yl)oxy)-10-fluoro-5,6-dihydro-4H-[1,4]oxazepino[5,6,7-de]quinazolin-9-yl)-4-methyl-5-(trifluoromethyl)pyridin-2-amine], the IC50 in experiment [1] was determined as 12 nM; in experiment [2] it was 143 nM.
On to `Cc1cc(N)nc(-c2c(Cl)c3c4c(nc(OC[C@@H]5CC[C@H]6COCCN65)nc4c2F)N([C@H](C)c2nccnc2N)CCO3)c1C(F)(F)F` (atropisomer, axis not shown; (aS)) [Example 104b, 3-((R)-1-((S)-9-(6-amino-4-methyl-3-(trifluoromethyl)pyridin-2-yl)-8-chloro-10-fluoro-2-(((6S,8aS)-hexahydro-1H-pyrrolo[2,1-c][1,4]oxazin-6-yl)methoxy)-5,6-dihydro-4H-[1,4]oxazepino[5,6,7-de]quinazolin-4-yl)ethyl)pyrazin-2-amine], for which the IC50 was found to be 16 nM in experiment [1] and 35.2 nM in experiment [2].
In the case of `Cc1cc(N)nc(-c2cc3ncnc4c3c(c2Cl)OCCN4Cc2scnc2N)c1C(F)(F)F` [Example 25, 5-((9-(6-amino-4-methyl-3-(trifluoromethyl)pyridin-2-yl)-8-chloro-5,6-dihydro-4H-[1,4]oxazepino[5,6,7-de]quinazolin-4-yl)methyl)thiazol-4-amine], the half-inhibitory concentration (IC50) in experiment [1] was 510 nM; in experiment [2] it was 2000 nM.
`Cc1cc(N)nc(-c2c(Cl)c3c4c(nc(OC[C@@]56CCCN5C[C@H](F)C6)nc4c2F)N(Cc2cnc[nH]2)CCO3)c1C(F)(F)F` (single isomer, unassigned) [Example 47a]: the values for the half-inhibitory concentration (IC50) in experiment [3] and in experiment [4] were 20 µM and 7.1 µM, respectively.

For orientation: IC50 means the concentration that inhibits the measured activity by half.
